Results on 19 compounds are retold here after patent publication US11185531B2, “Arginine methyltransferase inhibitors and uses thereof” (Epizyme, Inc., priority 2013, dated 2021).

The target of the test is T1, Human CARM1 (PRMT4) (Homo sapiens, UniProt Q86X55).
T1 construct: Flag-CARM1-His was eluted with 200 ug/ml FLAG peptide in buffer A; made in house; host or cells: HEK 293F cells (BacMam baculovirus, pFastBacMam)
T1 sequence (Q86X55 1-585 isoform Q86X55-1): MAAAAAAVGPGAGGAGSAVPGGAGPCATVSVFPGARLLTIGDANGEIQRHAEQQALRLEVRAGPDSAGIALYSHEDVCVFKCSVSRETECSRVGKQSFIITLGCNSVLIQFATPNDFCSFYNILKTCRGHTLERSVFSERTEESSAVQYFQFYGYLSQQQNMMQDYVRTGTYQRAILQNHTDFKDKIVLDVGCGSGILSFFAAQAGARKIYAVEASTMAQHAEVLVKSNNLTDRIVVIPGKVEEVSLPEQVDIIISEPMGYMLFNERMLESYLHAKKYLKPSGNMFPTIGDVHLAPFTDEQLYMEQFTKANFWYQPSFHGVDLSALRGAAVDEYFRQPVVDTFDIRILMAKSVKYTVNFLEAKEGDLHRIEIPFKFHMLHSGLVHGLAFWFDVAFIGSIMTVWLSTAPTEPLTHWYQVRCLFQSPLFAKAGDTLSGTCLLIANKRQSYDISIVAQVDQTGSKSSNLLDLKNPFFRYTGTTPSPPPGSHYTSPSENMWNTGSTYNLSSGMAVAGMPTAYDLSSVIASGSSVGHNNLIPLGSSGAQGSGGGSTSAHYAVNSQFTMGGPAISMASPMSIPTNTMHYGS
Nature of the test: CARM1 Biochemical Assay (3H-SAM Flashplate, peptide substrate). The conditions noted are these: 30 min preincubation. The source says:
Peptide representative of human histone H3 residues 16-30 was synthesized with an N-terminal linker-affinity tag motif and a C-terminal amide cap by 21st Century Biochemicals. The peptide was purified by high-performance liquid chromatography (HPLC) to greater than 95% purity and confirmed by liquid chromatography mass spectrometry (LC-MS). The sequence was Biot-Ahx-[…]-amide and contained a monomethylated arginine at position 26 (SEQ ID NO:14).
Human CARM1 (PRMT4) (NM_199141.1) transcript clone was amplified from an HEK 293 cDNA library, incorporating a flanking 5′ sequence encoding a FLAG tag ([…]) (SEQ ID NO:6) fused directly to Ala 2 of CARM1 and 3′ sequence encoding a hexa His sequence ([…]) (SEQ ID NO:15) fused directly to Ser 608. The gene sequence encoding isoform1 containing a deletion of amino acids 539-561 was amplified subsequently and subcloned into pFastBacMam (Viva Biotech).
Column was washed with 500 mM NaCl in buffer A and Flag-CARM1-His was eluted with 200 ug/ml FLAG peptide in buffer A. Pooled fractions were dialyzed in 20 mM Tris, 150 mM NaCl, 5% glycerol and 1 mM DTT, pH 7.8. The purity of recovered protein was 94.
General Procedure for CARM1 Enzyme Assays on Peptide Substrates.
The assays were all performed in a buffer consisting of 20 mM Bicine (pH=7.6), 1 mM TCEP, 0.005% BSG, and 0.002% Tween 20, prepared on the day of use. Compounds in 100% DMSO (1 ul) were spotted into a polypropylene 384-well V-bottom plates (Greiner) using a Platemate Plus outfitted with a 384-channel head (Thermo Scientific). DMSO (1 ul) was added to Columns 11, 12, 23, 24, rows A-H for the maximum signal control and 1 ul of SAH, a known product and inhibitor of CARM1, was added to columns 11, 12, 23, 24, rows I-P for the minimum signal control. A cocktail (40 ul) containing the CARM1 enzyme was added by Multidrop Combi (Thermo-Fisher). The compounds were allowed to incubate with CARM1 for 30 min at room temperature, then a cocktail (10 ul) containing ^3H-SAM and peptide was added to initiate the reaction (final volume=51 ul). The final concentrations of the components were as follows: CARM1 was 0.25 nM, ^3H-SAM was 30 nM, peptide was 250 nM, SAH in the minimum signal control wells was 1 mM, and the DMSO concentration was 2%. The assays were stopped by the addition of non-radiolabeled SAM (10 ul) to a final concentration of 300 uM, which dilutes the ^3H-SAM to a level where its incorporation into the peptide substrate is no longer detectable. 50 ul of the reaction in the 384-well polypropylene plate was then transferred to a 384-well Flashplate and the biotinylated peptides were allowed to bind to the streptavidin surface for at least 1 hour before being washed once with 0.1% Tween20 in a Biotek ELx405 plate washer. The plates were then read in a PerkinElmer TopCount plate reader to measure the quantity of ^3H-labeled peptide bound to the Flashplate surface, measured as disintegrations per minute (dpm) or alternatively, referred to as counts per minute (cpm).
Where dpm=disintegrations per minute, cmpd=signal in assay well, and min and max are the respective minimum and maximum signal controls.
Where top and bottom are the normally allowed to float, but may be fixed at 100 or 0 respectively in a 3-parameter fit. The Hill Coefficient normally allowed to float but may also be fixed at 1 in a 3-parameter fit. Y is the % inhibition and X is the compound concentration.
The IC50 is the concentration at which inhibition is half-maximal. Higher therefore signals weaker potency in that assay. Take `CNCCN(C)Cc1c[nH]nc1C#Cc1cccc(OC)c1` [Compound 1]: the 50% inhibitory concentration (IC50) lay in the range of 0.101 to 1 µM. `CNCCN(C)Cc1c[nH]nc1C#Cc1ccc(C(C)(C)C)cc1` [Compound 2]: the half-maximal inhibitory concentration (IC50) was in the range of 0.101 to 1 µM.

For the compound `CNCCN(C)Cc1c[nH]nc1C#Cc1ccccc1` [Compound 3], the IC50 fell in the range of 1.01 to 3 µM. `CNCCN(C)Cc1c[nH]nc1C#Cc1ccc(F)cc1` [Compound 4] registered an IC50 of 0.101 to 1 µM. `CNCCN(C)Cc1c[nH]nc1/C=C/c1ccc(-c2ccccc2)cc1` [Compound 5]: the IC50 was in the range of 0.101 to 1 µM. As to `CNCCN(C)Cc1c[nH]nc1/C=C/c1ccc(C(F)(F)F)cc1` [Compound 6], the IC50 was in the range of 0.101 to 1 µM. For the compound `CNCCN(C)Cc1c[nH]nc1/C=C/c1ccc(OC)cc1` [Compound 7], the half-maximal inhibitory concentration (IC50) was < 0.1 µM. The value for `Cc1ccc(/C=C/c2n[nH]cc2CN(C)CCN)cc1` [Compound 8] was 0.101 to 1 µM; that for `COc1cc(/C=C/c2n[nH]cc2CN(C)CCN)cc(OC)c1` [Compound 11] was < 0.1 µM; that for `CN(CCN)Cc1c[nH]nc1/C=C/c1ccc(F)cc1F` [Compound 13] was 0.101 to 1 µM.

`CN(CCN)Cc1c[nH]nc1/C=C/c1cc(C(F)(F)F)cc(C(F)(F)F)c1` [Compound 14] came in with an IC50 of 0.101 to 1 µM. The value for `CN(CCN)Cc1c[nH]nc1/C=C/c1cc(F)cc(F)c1` [Compound 15] was 0.101 to 1 µM; that for `CN(CCN)Cc1c[nH]nc1/C=C/c1cccc(C(F)(F)F)c1` [Compound 16] was 0.101 to 1 µM.

As to `COc1cccc(/C=C/c2n[nH]cc2CN(C)CCN)c1` [Compound 17], the 50% inhibitory concentration (IC50) was < 0.1 µM. As for `CN(CCN)Cc1c[nH]nc1/C=C/c1ccc(C(F)(F)F)cc1` [Compound 18], the IC50 was < 0.1 µM. Compound `COC/C=C/c1n[nH]cc1CN(C)CCN` [Compound 19] had a half-maximal inhibitory concentration (IC50) of 3.01 to 10 µM. In the case of `CN(CCN)Cc1c[nH]nc1/C=C/c1cccc(F)c1` [Compound 20], the IC50 lay in the range of 0.101 to 1 µM. In the case of `CN(CCN)Cc1c[nH]nc1C1CCCCC1` [Compound 22], the IC50 is 3.01 to 10 µM. Compound `CN(CCN)Cc1c[nH]nc1CCc1ccc(F)cc1` [Compound 23, N^1-((3-(4-fluorophenethyl)-1H-pyrazol-4-yl)methyl)-N^1-methylethane-1,2-diamine] showed an IC50 of 1.01 to 3 µM.
